Broadly, the EC50 is the concentration giving half of the maximal effect. By Ki is commonly meant a dissociation constant, usually derived from enzyme kinetics or from competition with a known ligand.

Read-outs that look alike come from different tables or passages of the source.

Assay [1] deals with zymostenol accumulation in EpiSC-derived OPCs (EBP). Put plainly: GC/MS-based sterol profiling, zymostenol accumulation. As to conditions: 8 doses from 0.15 nM to 333 nM, read-out: mZymo GCMS EC50. In kind it is cell-based, mouse. A digest of the protocol:
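EpiSC-derived mouse OPCs plated at 100,000 cells/well in N2B27 without growth factors and treated 24 h. Sterols extracted, silylated with BSTFA and measured by GC/MS (EI, full scan), quantified against cholesterol-d7. Zymostenol normalized to levels after 24 h with 100 nM positive control reference.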

The test system of assay [2] is EpiSC-derived OPCs. In words: In vitro phenotypic screening of OPCs, MBP high-content imaging. The format is cell-based, mouse. Conditions: percentage of MBP+ oligodendrocytes, 3 days, 0.5 nM to 1000 nM, read-out: mOPC EC50. Summed up:
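Mouse EpiSC-derived OPCs seeded without growth factors and exposed 3 days at 37° C. to 8-point doses, 1000 nM to 0.5 nM final. Fixed cells stained for MBP and DAPI; high-content imaging gave percentage MBP+ oligodendrocytes, with EC50 from Hill-equation fit.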

In assay [3] the target is human emopamil binding protein and human 7-dehydrocholesterol reductase co-expressing cell membrane (Homo sapiens (Human), UniProt Q15125). Put plainly: hEBP-DHCR7 radioligand filtration binding assay with [3H]-Compound 118A*. Conditions: radioligand [3H]-Compound 118A*; HEK293 membrane co-expressing hEBP and DHCR7. Summed up:
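HEK293 membranes transiently co-expressing hEBP and hDHCR7 (10 μg/well) were incubated with [3H]-Compound 118A* (added at 25 nM) and compounds (8 doses, final 0.06–5000 nM, n=2) for 3 h at 22 °C. Bound radioactivity was read after PEI-treated GF/B filtration. IC50 came from a Hill fit of % inhibition and was converted to Ki.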

Sequence of human emopamil binding protein and human 7-dehydrocholesterol reductase co-expressing cell membrane (Q15125 whole entry): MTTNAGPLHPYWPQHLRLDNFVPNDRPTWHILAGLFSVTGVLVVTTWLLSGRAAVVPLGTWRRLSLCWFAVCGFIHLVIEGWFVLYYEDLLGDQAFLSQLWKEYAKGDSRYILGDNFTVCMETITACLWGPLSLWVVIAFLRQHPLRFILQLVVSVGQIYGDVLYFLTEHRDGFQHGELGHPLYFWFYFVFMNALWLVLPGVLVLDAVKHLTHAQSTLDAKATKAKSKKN

Consider `O=S1(=O)CC2(CCN(CCOc3ccc(F)cc3F)CC2)C1` [Example 204, 7-(2-(2,4-Difluorophenoxy)ethyl)-2-thia-7-azaspiro[3.5]nonane 2,2-dioxide], for which the EC50 was 0.0023 µM in assay [1] (Mus musculus, 24 h) and 0.0068 µM in assay [2] (Mus musculus, 72 h). The affinity in assay [3] corresponds to a Ki of 0.0289 µM.
Turning to `C[C@@H](CN1CCC2(C1)CS(=O)(=O)C2)Oc1ccc(C(F)(F)F)cc1` (single isomer, unassigned) [115B*], the EC50 in assay [1] (Mus musculus, 24 h) was determined as 0.015 µM; in assay [2] (Mus musculus, 72 h), 0.029 µM. In assay [3], this compound registered a Ki of 0.0135 µM.
Regarding `CC(Cc1ccc(C2CC2)cc1)CN1CCC2(C1)CS(=O)(=O)C2` (racemic) [Compound 108, 6-(3-(4-Cyclopropylphenyl)-2-methylpropyl)-2-thia-6-azaspiro[3.4]octane 2,2-dioxide], the EC50 was 0.0055 µM in assay [1] (Mus musculus, 24 h) and 0.0075 µM in assay [2] (Mus musculus, 72 h). Also, the Ki in assay [3] was 0.00972 µM.
For `O=S1(=O)CC2(CCN(CC3(Oc4ccc(C(F)(F)F)cc4)CCC3)CC2)C1` [Compound 222, 7-((1-(4-(Trifluoromethyl)phenoxy)cyclobutyl)methyl)-2-thia-7-azaspiro[3.5]nonane 2,2-dioxide], the EC50 in assay [1] (Mus musculus, 24 h) amounted to 0.0037 µM; in assay [2] (Mus musculus, 72 h), 0.016 µM. Further, in assay [3], affinity was put at a Ki of 0.0037 µM.
Regarding `O=S1(=O)CC2(CCN(CC3(Oc4ccc(C(F)(F)F)cc4)CCCC3)CC2)C1` [Example 202, 7-((1-(4-(Trifluoromethyl)phenoxy)cyclopentyl)methyl)-2-thia-7-azaspiro[3.5]nonane 2,2-dioxide], the EC50 in assay [1] (Mus musculus, 24 h) was 0.042 µM; in assay [2] (Mus musculus, 72 h), 0.22 µM. The compound also showed a Ki in assay [3] of 0.0147 µM.
For `CC(C)(CN1CCC2(C1)CS(=O)(=O)C2)Oc1cccc(F)c1` [Example 127, 6-(2-(3-Fluorophenoxy)-2-methylpropyl)-2-thia-6-azaspiro[3.4]octane-2,2-dioxide], the EC50 turned out to be 0.013 µM in assay [1] (Mus musculus, 24 h) and 0.015 µM in assay [2] (Mus musculus, 72 h). This compound also came in with a Ki in assay [3] of 0.0213 µM.
On the same counts, the results for `CCC(C)(C)c1ccc(CC(C)CN2CCC3(CCS(=O)(=O)C3)C2)cc1` (stereo not drawn) [Compound 106] are 0.0085 µM, 0.047 µM and 0.00838 µM.
With `O=S1(=O)CC2(CCN(CCOc3cnc([C@H]4CC[C@H](C(F)(F)F)CC4)c(Cl)c3)CC2)C1` [Compound 246, 7-(2-((5-Chloro-6-((trans)-4-(trifluoromethyl)cyclohexyl)pyridin-3-yl)oxy)ethyl)-2-thia-7-azaspiro[3.5]nonane 2,2-dioxide], the EC50 in assay [1] (Mus musculus, 24 h) was 0.00126 µM; in assay [2] (Mus musculus, 72 h), 0.00262 µM. In addition, the affinity in assay [3] corresponds to a Ki of 0.0122 µM.
On to `O=S1(=O)CC2(CCN(CCOc3ccc(Cl)c(F)c3)CC2)C1` [Example 206, 7-(2-(4-Chloro-3-fluorophenoxy)ethyl)-2-thia-7-azaspiro[3.5]nonane 2,2-dioxide], for which the EC50 in assay [1] (Mus musculus, 24 h) was found to be 0.0015 µM; in assay [2] (Mus musculus, 72 h) it was 0.0032 µM. In assay [3], this compound yielded a Ki of 0.0132 µM.
Consider `C[C@@H](Cc1ccc(C2CCC2)cc1)CN1CCC2(C1)CS(=O)(=O)C2` (single isomer, unassigned) [109C*], for which the EC50 in assay [1] (Mus musculus, 24 h) was 0.0021 µM; in assay [2] (Mus musculus, 72 h), 0.003 µM. Also, the Ki in assay [3] was found to be 0.00514 µM.
`O=S1(=O)CCC2(CC1)CN(CCOc1ccc(F)c(F)c1)C2` [Compound 214, 2-(2-(3,4-Difluorophenoxy)ethyl)-7-thia-2-azaspiro[3.5]nonane 7,7-dioxide]: the concentration giving a half-maximal response (EC50) is 0.015 µM in assay [1] (Mus musculus, 24 h) and 0.0504 µM in assay [2] (Mus musculus, 72 h). In assay [3], this compound showed a Ki of 0.0408 µM.
As to `C[C@H](Cc1ccc(C2CCC(F)(F)CC2)c(Cl)c1)CN1CCC2(C1)CS(=O)(=O)C2` (single isomer, unassigned) [117B*], the EC50 in assay [1] (Mus musculus, 24 h) was 0.00035 µM; in assay [2] (Mus musculus, 72 h) it was 0.00046 µM. Further, the Ki in assay [3] was 0.00986 µM.
Take `C[C@H](Cc1ccc(C(F)(F)F)cn1)CN1CCC2(C1)CS(=O)(=O)C2` (single isomer, unassigned) [121B*]: the EC50 was 0.15 µM in assay [1] (Mus musculus, 24 h) and 0.26 µM in assay [2] (Mus musculus, 72 h). In assay [3], this compound displayed a Ki of 0.14 µM.
On the same counts, the results for `C[C@H](Cc1ccc(OC(F)(F)F)cc1)CN1CCC2(C1)CS(=O)(=O)C2` (single isomer, unassigned) [119B*] are 0.004 µM, 0.0022 µM and 0.0105 µM.
In the case of `O=S1(=O)CC2(CCN(CCOc3ccc(-c4ccc(C(F)(F)F)nc4)cc3)CC2)C1` [Compound 238, 7-(2-(4-(6-(Trifluoromethyl)pyridin-3-yl)phenoxy)ethyl)-2-thia-7-azaspiro[3.5]nonane 2,2-dioxide], the EC50 in assay [1] (Mus musculus, 24 h) was 0.00289 µM; in assay [2] (Mus musculus, 72 h) it was 0.0137 µM. The same compound had an inhibition constant (Ki) in assay [3] of 0.0141 µM.
On the same counts, the results for `C[C@H](Cc1ccc(C(F)(F)F)nc1)CN1CCC2(C1)CS(=O)(=O)C2` (single isomer, unassigned) [118B*] are 0.054 µM, 0.14 µM and 0.0505 µM.
The corresponding values for `O=S1(=O)CC2(CCN(CCOc3cnc(C4CCCCC4)c(Cl)c3)CC2)C1` [Compound 240, 7-[2-[(5-Chloro-6-cyclohexyl-3-pyridyl)oxy]ethyl]-26-thia-7-azaspiro[3.5]nonane 2,2-dioxide] are 0.0755 µM, 0.346 µM and 0.00196 µM.
On to `C[C@@H](Cc1ccc([C@H]2CC[C@](O)(C(F)(F)F)CC2)c(Cl)c1)CN1CCC2(C1)CS(=O)(=O)C2` (stereo in doubt) [116A*, 6-((S)-3-(3-Chloro-4-((1s,4R)-4-hydroxy-4-(trifluoromethyl)cyclohexyl)phenyl)-2-methylpropyl)-2-thia-6-azaspiro[3.4]octane 2,2-dioxide, 6-((R)-3-(3-chloro-4-((1s,4S)-4-hydroxy-4-(trifluoromethyl)cyclohexyl)phenyl)-2-methylpropyl)-2-thia-6-azaspiro[3.4]octane 2,2-dioxide], for which the half-maximal effective concentration (EC50) in assay [1] (24 hours) came out at 0.00049 µM; in assay [2], 0.0016 µM. For the same compound, the Ki in assay [3] amounted to 0.0105 µM.
Consider `CC(C)(CN1CCC2(CC1)CS(=O)(=O)C2)Oc1ccc(C(F)(F)F)nc1` [Example 205, 7-(2-Methyl-2-((6-(trifluoromethyl)pyridin-3-yl)oxy)propyl)-2-thia-7-azaspiro[3.5]nonane 2,2-dioxide], for which the EC50 is 0.0056 µM in assay [1] (Mus musculus, 24 h) and 0.024 µM in assay [2] (Mus musculus, 72 h). The same compound yielded a Ki in assay [3] of 0.0194 µM.
Regarding `C[C@H](CN1CCC2(CC1)CS(=O)(=O)C2)Oc1ccc(C(F)(F)F)cc1` (single isomer, unassigned) [227B*], the EC50 in assay [1] (Mus musculus, 24 h) was found to be 0.0021 µM; in assay [2] (Mus musculus, 72 h), 0.0024 µM. The compound also registered a Ki in assay [3] of 0.0098 µM.
For the compound `C[C@@H](Cc1ccc(C(F)(F)F)nc1)CN1CCC2(CC1)CS(=O)(=O)C2` (single isomer, unassigned) [Example 203*], the EC50 in assay [1] (Mus musculus, 24 h) worked out at 0.0064 µM; in assay [2] (Mus musculus, 72 h), 0.022 µM. The Ki in assay [3] stood at 0.0519 µM.
As for `C[C@@H](Cc1ccc([C@H]2CC[C@](C)(O)CC2)c(Cl)c1)CN1CCC2(C1)CS(=O)(=O)C2` (mixture of isomers) [Compound 123B, 6-((S)-3-(3-Chloro-4-((1r,4S)-4-hydroxy-4-methylcyclohexyl)phenyl)-2-methylpropyl)-2-thia-6-azaspiro[3.4]octane 2,2-dioxide, and 6-((R)-3-(3-chloro-4-((1r,4R)-4-hydroxy-4-methylcyclohexyl)phenyl)-2-methylpropyl)-2-thia-6-azaspiro[3.4]octane 2,2-dioxide], the EC50 was found to be 0.0024 µM in assay [1] (24 hours) and 0.035 µM in assay [2]. This compound also returned a Ki in assay [3] of 0.011 µM.
Regarding `CC(C)n1nc(C(F)(F)F)cc1C[C@@H](C)CN1CCC2(C1)CS(=O)(=O)C2` (single isomer, unassigned) [235A*], the EC50 in assay [1] (Mus musculus, 24 h) was 0.0061 µM; in assay [2] (Mus musculus, 72 h), 0.0199 µM. Besides, the Ki in assay [3] is 0.0197 µM.
As for `O=S1(=O)CCC2(CC1)CN(CCOc1ccc(F)c(Cl)c1)C2` [Compound 219, 2-(2-(3-Chloro-4-fluorophenoxy)ethyl)-7-thia-2-azaspiro[3.5]nonane 7,7-dioxide], the EC50 was 0.0069 µM in assay [1] (Mus musculus, 24 h) and 0.0222 µM in assay [2] (Mus musculus, 72 h). The compound also came in with an inhibition constant Ki in assay [3] of 0.0221 µM.
In the case of `CC(Cc1ccc(F)c(F)c1)CN1CCC2(CC1)CS(=O)(=O)C2` (single isomer, unassigned) [212B*, 7-(3-(3,4-Difluorophenyl)-2-methylpropyl)-2-thia-7-azaspiro[3.5]nonane 2,2-dioxide], the EC50 in assay [1] (24 hours) was 0.0021 µM; in assay [2] it was 0.004 µM. The Ki in assay [3] was found to be 0.0101 µM.
As for `C[C@H](Cc1ccc(C(F)(F)F)cc1)CN1CC2(CCS(=O)(=O)CC2)C1` (single isomer, unassigned) [232A*], the EC50 in assay [1] (Mus musculus, 24 h) is 0.002 µM; in assay [2] (Mus musculus, 72 h), 0.0056 µM. In assay [3], affinity was put at a Ki of 0.0139 µM.
For the compound `C[C@H](CN1CCC2(CC1)CS(=O)(=O)C2)Oc1ccc(C(F)(F)F)nc1` (single isomer, unassigned) [Example 207B*], the EC50 in assay [1] (Mus musculus, 24 h) came to 0.0098 µM; in assay [2] (Mus musculus, 72 h) it was 0.063 µM. Besides, the affinity in assay [3], expressed as Ki, was 0.0653 µM.
`O=S1(=O)CC2(CCN(CCOc3ccc(C(F)(F)F)cc3)CC2)C1` [Compound 226, 7-(2-(4-(Trifluoromethyl)phenoxy)ethyl)-2-thia-7-azaspiro[3.5]nonane 2,2-dioxide]: the EC50 in assay [1] (Mus musculus, 24 h) stood at 0.00088 µM; in assay [2] (Mus musculus, 72 h) it was 0.0022 µM. The compound also returned an inhibitory constant (Ki) in assay [3] of 0.00929 µM.

(Values after patent US20240400579A1, “SPIROCYCLIC MODULATORS OF CHOLESTEROL BIOSYNTHESIS AND THEIR USE FOR PROMOTING REMYELINATION” (GENENTECH, INC., priority 2021, published 2024).)
